{
  "source": "patent US20260376293A1",
  "about": "“METHODS FOR STUDYING GPR158 PHARMACOLOGY AND IDENTIFICATION OF ITS LIGANDS” (UNIVERSITY OF FLORIDA RESEARCH FOUNDATION, INCORPORATED, priority 2022, published 2026)",
  "test_system": "layer V pyramidal neurons",
  "assay": "Whole cell recordings, layer V prelimbic cortex neurons, WT mice",
  "type": "cell-based, mouse",
  "conditions": "glycine 1 mM",
  "procedure": "FIGS. 15A-15H. Effect of glycine and taurine on excitability of layer V neurons and membrane properties of layer II/III neurons in wild type and GPR158 knockout mice. A) Representative traces of voltage responses to a 200 pA current ramp injection obtained from layer V pyramidal neurons in WT mice under control conditions and during bath application of glycine (1 mM). B) Quantification of glycine effects on neuronal excitability by number of action potentials fired in response to 200 pA current ramp under control condition and glycine application (n=4 neurons/3 mice). Nonparametric t-test; Wilcoxon test, ns=p>0.05. C) Quantification of glycine effects on neuronal excitability by rheobase current under control condition and glycine application (n=4 neurons/3 mice). Nonparametric t-test; Wilcoxon test, ns=p>0.05. […]\nElectrophysiological recordings from layer II-III and layer V neurons of the prelimbic cortex were performed with C57Bl6 mice of either sex aged between 6-12 weeks. […] The Rheobase current was defined as the minimum current necessary to elicit the first AP and changes in neuronal excitability were assessed by counting the number of spikes evoked in response to 1-s depolarizing ramp ranging from 0 to 200 pA with a 20-s intertrial interval. […]",
  "data": [
    {"compound": "NCC(=O)O", "note": "[glycine]", "values": [
      {"measurement": "intrinsic excitability of layer V neurons", "value": "did not produce any changes"},
      {"measurement": "resting membrane potential", "setting": "layer V", "value": "ns"}
    ]}
  ]
}
